Type in all cases: cell-based
For one assay, the system named is COLO205 (colon). In words: Inhibition of cell proliferation, CellTiter-Glo, COLO205. As to conditions: Homo sapiens, COLO 205, 72 h. Put shortly:
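Exponentially growing COLO205 cells in medium with 10% FBS were plated below 2000 cells/well at 37 °C, 5% CO2. Untreated wells served as controls.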
In general terms: Cellular ATP, detected with luciferase, serves as a proxy for viable cell number.

Assay [1] has as its system NCI-H929 (multiple myeloma). The assay can be described thus: Inhibition of cell proliferation, CellTiter-Glo, NCI-H929. Conditions: Homo sapiens, 72 h. Here is the method: C. Inhibition of Cell Proliferation
Cell proliferation was measured by either CellTiter-Glo (measures cellular ATP level as a surrogate for total cell number) or by InCell analyzer (counts number of nuclei as a measure of cell number). For CellTiter-Glo assay, exponentially growing cell lines of different tumor origins, cultured in appropriate media containing 10% fetal bovine serum at 37° C. in a 5% CO2 incubator, were plated at low density (less than 2000 cells/well) in 96-well plates. Twenty four hours post-plating, cells were treated with different concentrations of test compounds ranging from 30 uM to 1.5 nM. Several wells were left untreated as a control. Seventy two hours post-treatment, cell numbers were determined using 50-100 ul per well of CellTiter-Glo (Promega #G7573). Plates were incubated at 37° C. for 30 minutes and the chemiluminescent signal was read on the Victor V or Envison 2100 reader. […]

In assay [2] the target is T1, human IGF-1R (NIH-3T3 cells over expressing human IGF-1R) (Homo sapiens, UniProt P08069).
T1 construct: expressed in transfected cells; host or cells: NIH-3T3 (mouse fibroblasts)
T1 sequence (P08069 31-1367): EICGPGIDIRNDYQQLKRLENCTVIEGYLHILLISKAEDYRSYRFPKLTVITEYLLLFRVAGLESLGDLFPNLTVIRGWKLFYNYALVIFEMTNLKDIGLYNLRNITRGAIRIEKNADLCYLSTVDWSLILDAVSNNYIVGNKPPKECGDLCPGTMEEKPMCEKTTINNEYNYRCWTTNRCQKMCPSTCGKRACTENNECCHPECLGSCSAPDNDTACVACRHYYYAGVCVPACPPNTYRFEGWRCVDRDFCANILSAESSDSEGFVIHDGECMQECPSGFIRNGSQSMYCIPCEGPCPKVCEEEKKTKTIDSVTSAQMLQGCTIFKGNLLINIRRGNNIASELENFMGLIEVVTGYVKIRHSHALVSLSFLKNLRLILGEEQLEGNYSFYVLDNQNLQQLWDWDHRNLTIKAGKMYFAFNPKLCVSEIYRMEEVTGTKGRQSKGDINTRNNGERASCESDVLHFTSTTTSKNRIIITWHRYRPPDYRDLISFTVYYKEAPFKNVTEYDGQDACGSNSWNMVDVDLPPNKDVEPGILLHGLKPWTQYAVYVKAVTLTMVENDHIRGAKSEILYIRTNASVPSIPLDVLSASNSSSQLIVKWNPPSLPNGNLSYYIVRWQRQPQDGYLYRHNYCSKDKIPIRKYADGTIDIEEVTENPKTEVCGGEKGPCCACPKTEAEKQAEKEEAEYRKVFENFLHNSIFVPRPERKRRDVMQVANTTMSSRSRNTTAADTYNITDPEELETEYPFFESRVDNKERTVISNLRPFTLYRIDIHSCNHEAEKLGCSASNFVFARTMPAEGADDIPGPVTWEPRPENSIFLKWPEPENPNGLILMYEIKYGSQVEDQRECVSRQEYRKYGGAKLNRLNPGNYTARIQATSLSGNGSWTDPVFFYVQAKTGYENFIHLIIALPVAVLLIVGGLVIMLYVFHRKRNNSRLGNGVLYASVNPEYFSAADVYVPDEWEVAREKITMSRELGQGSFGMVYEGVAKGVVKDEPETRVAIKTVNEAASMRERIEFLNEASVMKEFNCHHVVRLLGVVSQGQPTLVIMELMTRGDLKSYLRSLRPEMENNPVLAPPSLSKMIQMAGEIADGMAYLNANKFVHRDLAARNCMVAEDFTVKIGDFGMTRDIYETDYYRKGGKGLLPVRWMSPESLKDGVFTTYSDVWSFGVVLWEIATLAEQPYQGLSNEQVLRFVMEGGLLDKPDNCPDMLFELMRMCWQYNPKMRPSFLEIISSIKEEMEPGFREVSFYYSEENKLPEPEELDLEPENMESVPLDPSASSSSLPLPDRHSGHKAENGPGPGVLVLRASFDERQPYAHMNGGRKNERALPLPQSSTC
The assay can be described thus: IGF-1R cellular autophosphorylation (DELFIA). Conditions: IGF-1 stimulated. Put shortly:
(§1)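 Receptor-overexpressing NIH-3T3, 10% FBS, 37 °C; cpd 30 uM–1.5 nM × 2 h; stim IGF-1 30 ng/mL (IGF-1R) or insulin 3 ug/mL (IR), 15 min; lysate DELFIA, Eu anti-pTyr; % of stimulated signal.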

Assay [3] addresses T2, IR (NIH-3T3 cells over expressing human IGF-1R or IR) (Homo sapiens, UniProt P06213).
T2 construct: expressed in transfected cells; host or cells: NIH-3T3 (mouse fibroblasts)
In words: IR cellular autophosphorylation (DELFIA). As to conditions: NIH-3T3 cells over expressing IR, insulin stimulated. A digest of the protocol: as §1

This passage reports IC50 results from patent publication US20100216779A1 (GLAXOSMITHKLINE LLC, priority 2007, published 2010).

For orientation: IC50 means the concentration at which inhibition is half-maximal. Higher therefore signals lower potency.

T2 sequence (P06213 28-1382): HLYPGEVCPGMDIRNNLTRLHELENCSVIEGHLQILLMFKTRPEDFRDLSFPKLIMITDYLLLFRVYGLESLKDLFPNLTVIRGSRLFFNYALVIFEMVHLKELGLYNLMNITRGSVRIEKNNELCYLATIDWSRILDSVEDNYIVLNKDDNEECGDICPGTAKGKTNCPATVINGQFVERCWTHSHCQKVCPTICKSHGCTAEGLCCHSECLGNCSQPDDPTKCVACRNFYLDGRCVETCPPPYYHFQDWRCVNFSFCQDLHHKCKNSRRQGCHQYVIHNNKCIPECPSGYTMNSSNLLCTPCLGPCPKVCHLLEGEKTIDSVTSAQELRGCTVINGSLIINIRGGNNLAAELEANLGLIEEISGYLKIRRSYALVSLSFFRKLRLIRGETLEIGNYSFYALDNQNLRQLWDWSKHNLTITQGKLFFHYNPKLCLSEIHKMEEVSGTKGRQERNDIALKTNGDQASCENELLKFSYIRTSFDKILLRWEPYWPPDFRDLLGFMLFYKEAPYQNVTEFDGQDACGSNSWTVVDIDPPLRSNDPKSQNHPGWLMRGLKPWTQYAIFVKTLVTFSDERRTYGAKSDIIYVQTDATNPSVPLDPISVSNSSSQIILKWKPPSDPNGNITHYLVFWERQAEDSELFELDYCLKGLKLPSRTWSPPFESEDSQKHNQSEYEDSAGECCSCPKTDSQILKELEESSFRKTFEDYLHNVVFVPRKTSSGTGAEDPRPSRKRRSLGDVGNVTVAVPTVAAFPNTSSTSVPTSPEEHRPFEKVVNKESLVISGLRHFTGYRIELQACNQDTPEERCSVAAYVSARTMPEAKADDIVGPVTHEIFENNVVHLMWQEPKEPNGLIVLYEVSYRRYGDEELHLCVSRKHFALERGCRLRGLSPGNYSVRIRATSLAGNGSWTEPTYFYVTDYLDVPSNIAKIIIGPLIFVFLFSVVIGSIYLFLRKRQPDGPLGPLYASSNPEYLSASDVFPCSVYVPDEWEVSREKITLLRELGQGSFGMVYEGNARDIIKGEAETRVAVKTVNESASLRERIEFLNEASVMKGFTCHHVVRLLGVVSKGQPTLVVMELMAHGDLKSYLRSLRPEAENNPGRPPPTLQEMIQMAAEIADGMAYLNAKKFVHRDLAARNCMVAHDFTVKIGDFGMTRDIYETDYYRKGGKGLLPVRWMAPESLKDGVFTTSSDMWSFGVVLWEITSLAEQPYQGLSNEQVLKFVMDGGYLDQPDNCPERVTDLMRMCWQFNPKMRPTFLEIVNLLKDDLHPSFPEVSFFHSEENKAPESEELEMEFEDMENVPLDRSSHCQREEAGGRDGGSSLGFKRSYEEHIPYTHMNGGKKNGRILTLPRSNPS

In the case of `COc1cc(C2CCN(C3CCN(CCS(C)(=O)=O)CC3)CC2)ccc1Nc1nccc(-c2c(-c3cccc(C(=O)Nc4c(F)cccc4F)c3)nc3ccccn23)n1` [Example 99, N-(2,6-difluorophenyl)-3-(3-{2-[(2-(methyloxy)-4-{1′-[2-(methylsulfonyl)ethyl]-1,4′-bipiperidin-4-yl}phenyl)amino]-4-pyrimidinyl}imidazo[1,2-a]pyridin-2-yl)benzamide], the IC50 is less than 250 nM with COLO205 (colon), less than 250 nM in assay [1], less than 100 nM in assay [2] and less than 100 nM in assay [3].
Consider `CCOc1ccc(-c2nc3ccccn3c2-c2ccnc(Nc3ccc(N4CCC(N5CCN(CCS(C)(=O)=O)CC5)CC4)cc3OC)n2)cc1C(=O)Nc1c(F)cccc1F` [Example 66, N-(2,6-difluorophenyl)-2-(ethyloxy)-5-[3-(2-{[2-(methyloxy)-4-(4-{4-[2-(methylsulfonyl)-ethyl]-1-piperazinyl}-1-piperidinyl)phenyl]amino}-4-pyrimidinyl)imidazo[1,2-a]pyridin-2-yl]benzamide], for which the IC50 was 250 to 1000 nM with COLO205 (colon), less than 250 nM in assay [1], less than 100 nM in assay [2] and less than 100 nM in assay [3].
As for `COc1cc(N2CCN(CCS(C)(=O)=O)CC2)c(C)cc1Nc1nccc(-c2c(-c3ccc(OC)c(C(=O)Nc4c(F)cccc4F)c3)nc3ccccn23)n1` [Example 149, N-(2,6-difluorophenyl)-5-(3-{2-[(5-methyl-2-(methyloxy)-4-{4-[2-(methylsulfonyl)ethyl]-1-piperazinyl}phenyl)amino]-4-pyrimidinyl}imidazo[1,2-a]pyridin-2-yl)-2-(methyloxy)benzamide], the IC50 with COLO205 (colon) was less than 250 nM; in assay [1], less than 250 nM; in assay [2] it was less than 100 nM; in assay [3] it was less than 100 nM.
For `COc1cc(N2CCN(CCS(C)(=O)=O)CC2)c(Cl)cc1Nc1nccc(-c2c(-c3ccc(OC)c(C(=O)Nc4c(F)cccc4F)c3)nc3ccccn23)n1` [Example 213, 5-(3-{2-[(5-chloro-2-(methyloxy)-4-{4-[2-(methylsulfonyl)ethyl]-1-piperazinyl}phenyl)amino]-4-pyrimidinyl}imidazo[1,2-a]pyridin-2-yl)-N-(2,6-difluorophenyl)-2-(methyloxy)benzamide], the 50% inhibitory concentration (IC50) with COLO205 (colon) is less than 250 nM; in assay [1], less than 250 nM; in assay [2], less than 100 nM; in assay [3] it was less than 100 nM.
Turning to `CCOc1ccc(-c2nc3ccccn3c2-c2ccnc(Nc3cc(C)c(N4CCC(CCS(C)(=O)=O)CC4)cc3OC)n2)cc1C(=O)Nc1c(F)cccc1F` [Example 229, N-(2,6-difluorophenyl)-2-(ethyloxy)-5-(3-{2-[(5-methyl-2-(methyloxy)-4-{4-[2-(methylsulfonyl)ethyl]-1-piperidinyl}phenyl)amino]-4-pyrimidinyl}imidazo[1,2-a]pyridin-2-yl)benzamide], the IC50 is less than 250 nM with COLO205 (colon), less than 250 nM in assay [1], less than 100 nM in assay [2] and less than 100 nM in assay [3].
In the case of `CCOc1cc(C2CCN(CCS(C)(=O)=O)CC2)ccc1Nc1nccc(-c2c(-c3ccc(OC(C)C)c(C(=O)Nc4c(F)cccc4F)c3)nc3ccccn23)n1` [Example 186, N-(2,6-difluorophenyl)-5-(3-{2-[(2-(ethyloxy)-4-{1-[2-(methylsulfonyl)ethyl]-4-piperidinyl}phenyl)amino]-4-pyrimidinyl}imidazo[1,2-a]pyridin-2-yl)-2-[(1-methylethyl)oxy]benzamide], the IC50 (with COLO205 (colon); in assay [1]) was less than 250 nM throughout.
In the case of `CCOc1ccc(-c2nc3ccccn3c2-c2ccnc(Nc3ccc(C4CCN(CCS(C)(=O)=O)CC4)cc3OC)n2)cc1C(=O)Nc1c(F)cccc1F` [Example 182, N-(2,6-difluorophenyl)-2-(ethyloxy)-5-(3-{2-[(2-(methyloxy)-4-{1-[2-(methylsulfonyl)ethyl]-4-piperidinyl}phenyl)amino]-4-pyrimidinyl}imidazo[1,2-a]pyridin-2-yl)benzamide], the IC50 (in the assay with COLO205 (colon); in assay [1]) was less than 250 nM each time.
Take `CCOc1cc(N2CCC(N3CCN(S(C)(=O)=O)CC3)CC2)c(CC)cc1Nc1nccc(-c2c(-c3ccc(OCC)c(C(=O)Nc4c(F)cccc4F)c3)nc3ccccn23)n1` [Example 205, N-(2,6-difluorophenyl)-5-(3-{2-[(5-ethyl-2-(ethyloxy)-4-{4-[4-(methylsulfonyl)-1-piperazinyl]-1-piperidinyl}phenyl)amino]-4-pyrimidinyl}imidazo[1,2-a]pyridin-2-yl)-2-(ethyloxy)benzamide]: the 50% inhibitory concentration (IC50) (with COLO205 (colon); in assay [1]) was less than 250 nM throughout.
For the compound `COc1cc(N2CCC(N3CCCCC3)CC2)ccc1Nc1nccc(-c2c(-c3cccc(C(=O)Nc4c(F)cccc4F)c3)nc3cc(C(F)(F)F)ccn23)n1` [Example 191, 3-[3-(2-{[4-(1,4′-bipiperidin-1′-yl)-2-(methyloxy)phenyl]amino}-4-pyrimidinyl)-7-(trifluoromethyl)imidazo[1,2-a]pyridin-2-yl]-N-(2,6-difluorophenyl)benzamide], the concentration for half-maximal inhibition (IC50) (in the assay on COLO205 (colon); in assay [1]) was more than 1000 nM each time.
Take `COc1cc(N2CCC(CCS(C)(=O)=O)CC2)c(C)cc1Nc1nccc(-c2c(-c3cccc(C(=O)Nc4c(F)cccc4F)c3)nc3ccccn23)n1` [Example 231, N-(2,6-difluorophenyl)-3-(3-{2-[(5-methyl-2-(methyloxy)-4-{4-[2-(methylsulfonyl)ethyl]-1-piperidinyl}phenyl)amino]-4-pyrimidinyl}imidazo[1,2-a]pyridin-2-yl)benzamide]: the IC50 was less than 250 nM in assay [1], less than 100 nM in assay [2] and less than 100 nM in assay [3].
Take `CCOc1cc(C2CCN(CCS(C)(=O)=O)CC2)ccc1Nc1nccc(-c2c(-c3ccc(OC)c(C(=O)Nc4c(F)cccc4F)c3)nc3ccccn23)n1` [Example 184, N-(2,6-difluorophenyl)-5-(3-{2-[(2-(ethyloxy)-4-{1-[2-(methylsulfonyl)ethyl]-4-piperidinyl}-phenyl)amino]-4-pyrimidinyl}imidazo[1,2-a]pyridin-2-yl)-2-(methyloxy)benzamide]: the IC50 (in the assay on COLO205 (colon); in assay [1]) was less than 250 nM each time.
`COc1cc(C2CCN(CCS(C)(=O)=O)CC2)ccc1Nc1nccc(-c2c(-c3ccc(OC)c(C(=O)Nc4c(F)cccc4F)c3)nc3ccccn23)n1` [Example 181, N-(2,6-difluorophenyl)-2-(methyloxy)-5-(3-{2-[(2-(methyloxy)-4-{1-[2-(methylsulfonyl)ethyl]-4-piperidinyl}phenyl)amino]-4-pyrimidinyl}imidazo[1,2-a]pyridin-2-yl)benzamide]: the IC50 with COLO205 (colon) was 250 to 1000 nM; in assay [1], less than 250 nM.
Consider `CCOc1cc(N2CCN(CCS(C)(=O)=O)CC2)c(C)cc1Nc1nccc(-c2c(-c3ccc(OC)c(C(=O)Nc4c(F)cccc4F)c3)nc3ccccn23)n1` [Example 247, N-(2,6-difluorophenyl)-5-(3-{2-[(2-(ethyloxy)-5-methyl-4-[4-[2-(methylsulfonyl)ethyl]-1-piperazinyl}phenyl)amino]-4-pyrimidinyl}imidazo[1,2-a]pyridin-2-yl)-2-(methyloxy)benzamide], for which the IC50 (in the assay on COLO205 (colon); in assay [1]) was less than 250 nM throughout.
Consider `CN(C)CCOc1cccc(Nc2nccc(-c3c(-c4cccc(C(=O)Nc5c(F)cc(F)cc5F)c4)nc4ccccn34)n2)c1` [Example 12, 3-(3-{2-[(3-{[2-(dimethylamino)ethyl]oxy}phenyl)amino]-4-pyrimidinyl}imidazo[1,2-a]pyridin-2-yl)-N-(2,4,6-trifluorophenyl)benzamide], for which the half-inhibitory concentration (IC50) is 250 to 1000 nM in the assay with COLO205 (colon), less than 250 nM in assay [1] and 100 to 500 nM in assay [2].
In the case of `COc1cc(N2CCC(CCS(C)(=O)=O)CC2)c(C)cc1Nc1nccc(-c2c(-c3ccc(OC)c(C(=O)Nc4c(F)cccc4F)c3)nc3cc(F)ccn23)n1` [Example 220, N-(2,6-difluorophenyl)-5-(7-fluoro-3-{2-[(5-methyl-2-(methyloxy)-4-{4-[2-(methylsulfonyl)ethyl]-1-piperidinyl}phenyl)amino]-4-pyrimidinyl}imidazo[1,2-a]pyridin-2-yl)-2-(methyloxy)benzamide], the IC50 with COLO205 (colon) was 250 to 1000 nM; in assay [1], less than 250 nM.
The like results for `CCOc1cc(N2CCN(CCS(C)(=O)=O)CC2)c(C)cc1Nc1nccc(-c2c(-c3ccc(OC(C)C)c(C(=O)Nc4c(F)cccc4F)c3)nc3ccccn23)n1` [Example 249, N-(2,6-difluorophenyl)-5-(3-{2-[(2-(ethyloxy)-5-methyl-4-{4-[2-(methylsulfonyl)ethyl]-1-piperazinyl}phenyl)amino]-4-pyrimidinyl}imidazo[1,2-a]pyridin-2-yl)-2-[(1-methylethyl)oxy]benzamide] were, in that order, less than 250 nM and less than 250 nM.
